Among the test systems are NCI-H23 lung; NCI-H522 lung; MOLT-4 leukemia; MALME-3M melanoma; SF-295 CNS; MDA-MB-231 breast; KM12 colon; SK-OV-3 ovarian; NCI/ADR-RES ovarian; HL-60(TB) leukemia; OVCAR-4 ovarian; ACHN renal; PC-3 prostate; SR leukemia; NCI-H226 lung; CCRF-CEM leukemia; MDA-N; SNB-19 CNS; OVCAR-5 ovarian; HCC-2998 colon.
What all share (experiment): NCI anticancer screen, dose series, 48 h

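Interpolation was linear, between the two tested concentrations surrounding the appropriate level; five concentrations were tested over 48 hours in 96-well plates. TGI: concentration producing complete growth inhibition.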 A value given as a limit tells only on which side of the number the result lay.

With `Cc1cc2c(cc1C(=O)CCC(=O)O)CC1(C2)Cc2cc(C)c(C(=O)CCC(=O)O)cc2C1`, the TGI in the experiment with NCI-H23 lung, in the experiment with NCI-H522 lung, with MOLT-4 leukemia, with MALME-3M melanoma, in the experiment on SF-295 CNS and in the experiment with MDA-MB-231 breast was above 100 µM throughout. The TGI with KM12 colon, in the experiment with SK-OV-3 ovarian, in the experiment with NCI/ADR-RES ovarian, in the experiment with HL-60(TB) leukemia, in the experiment with OVCAR-4 ovarian and in the experiment on ACHN renal was above 100 µM in each case. Also, the TGI in the experiment with PC-3 prostate, in the experiment with SR leukemia, in the experiment on NCI-H226 lung, with CCRF-CEM leukemia, with MDA-N and in the experiment with SNB-19 CNS was above 100 µM in each case. Also, the TGI in the experiment with OVCAR-5 ovarian and in the experiment on HCC-2998 colon was above 100 µM in each case.

Regarding `Clc1ccccc1-c1nc2ccc(C34CC5CC(CC(C5)C3)C4)cc2[nH]1`, the TGI in the experiment with NCI-H23 lung was 36.4 µM; with NCI-H522 lung, 43.1 µM; in the experiment on MOLT-4 leukemia, above 100 µM; in the experiment with MALME-3M melanoma, 98.5 µM; with SF-295 CNS it was 32 µM; with MDA-MB-231 breast it was 37.9 µM. In addition, the TGI was above 100 µM with KM12 colon; 42.9 µM with SK-OV-3 ovarian; above 100 µM in the experiment on NCI/ADR-RES ovarian; above 100 µM in the experiment with HL-60(TB) leukemia; above 100 µM with OVCAR-4 ovarian; 28.8 µM in the experiment on ACHN renal. Further, the TGI was 34 µM with PC-3 prostate; 40.5 µM in the experiment on SR leukemia; above 100 µM with NCI-H226 lung; above 100 µM in the experiment with CCRF-CEM leukemia; above 100 µM with MDA-N; 21.6 µM in the experiment on SNB-19 CNS. Further, the TGI with OVCAR-5 ovarian was 54 µM; in the experiment on HCC-2998 colon it was above 100 µM.

On to `COC1(C)CP(=O)(OC(C)C)CC(C)=C1Cl` (stereo not given), for which the TGI with NCI-H23 lung is 32.4 µM; with NCI-H522 lung, 24.8 µM; in the experiment on MOLT-4 leukemia, above 100 µM; with MALME-3M melanoma, 40.8 µM; with SF-295 CNS it was 51 µM; in the experiment with MDA-MB-231 breast it was 34.1 µM. Further, the TGI was 34 µM in the experiment on KM12 colon; above 100 µM in the experiment on SK-OV-3 ovarian; above 100 µM in the experiment with NCI/ADR-RES ovarian; 29.1 µM in the experiment on HL-60(TB) leukemia; 28.6 µM with OVCAR-4 ovarian; above 100 µM in the experiment on ACHN renal. Further, the TGI with PC-3 prostate is 77.9 µM; in the experiment with SR leukemia it was above 100 µM; in the experiment on NCI-H226 lung, 78.2 µM; with CCRF-CEM leukemia, 15.7 µM; in the experiment with MDA-N it was 47.7 µM; in the experiment on SNB-19 CNS, 63.7 µM. Also, the TGI came out at 39 µM in the experiment with OVCAR-5 ovarian and 49.1 µM in the experiment on HCC-2998 colon.

As to `Cc1cc2cc3c(cc2c(-c2ccc([N+](=O)[O-])cc2)n1)OCO3`, the TGI in the experiment with NCI-H23 lung was above 100 µM; in the experiment with NCI-H522 lung it was 40.6 µM; with MOLT-4 leukemia, above 100 µM; in the experiment with MALME-3M melanoma, above 100 µM; in the experiment on SF-295 CNS, above 100 µM; in the experiment with MDA-MB-231 breast, 84.4 µM. For the same molecule, the TGI in the experiment on KM12 colon was above 100 µM; in the experiment with SK-OV-3 ovarian it was 71.2 µM; in the experiment on NCI/ADR-RES ovarian, above 100 µM; with HL-60(TB) leukemia it was above 100 µM; in the experiment with OVCAR-4 ovarian, 56.8 µM; in the experiment with ACHN renal, above 100 µM. For the same molecule, the TGI in the experiment on PC-3 prostate was above 100 µM; in the experiment on SR leukemia, above 100 µM; in the experiment on NCI-H226 lung, 89.8 µM; with CCRF-CEM leukemia, above 100 µM; in the experiment on MDA-N, above 100 µM; in the experiment with SNB-19 CNS it was above 100 µM. For the same molecule, the TGI in the experiment with OVCAR-5 ovarian and in the experiment on HCC-2998 colon was above 100 µM each time.

As for `c1ccc(-c2cn3c(nc4ccccc43)c(-c3ccccc3)n2)cc1`, the TGI is above 100 µM in the experiment with NCI-H23 lung; above 100 µM with NCI-H522 lung; above 100 µM in the experiment with MOLT-4 leukemia; above 100 µM with MALME-3M melanoma; above 71.9 µM in the experiment with SF-295 CNS; above 100 µM in the experiment on MDA-MB-231 breast. For the same molecule, the TGI with KM12 colon is above 100 µM; in the experiment with SK-OV-3 ovarian it was 38.4 µM; in the experiment with NCI/ADR-RES ovarian, above 100 µM; with HL-60(TB) leukemia, above 100 µM; in the experiment with OVCAR-4 ovarian it was above 26 µM; with ACHN renal, above 100 µM. For the same molecule, the TGI in the experiment with PC-3 prostate was above 100 µM; in the experiment with SR leukemia, above 100 µM; in the experiment with NCI-H226 lung, above 96.7 µM; in the experiment with CCRF-CEM leukemia, above 100 µM; with MDA-N, above 31.6 µM; in the experiment on SNB-19 CNS it was 81.7 µM. For the same molecule, the TGI in the experiment on OVCAR-5 ovarian and with HCC-2998 colon was above 100 µM throughout.

For the molecule `CC(=O)N(C(C)=O)n1c(Cc2ccc(Cl)cc2)n[nH]c1=O`, the TGI with NCI-H23 lung, with NCI-H522 lung, in the experiment with MOLT-4 leukemia, in the experiment with MALME-3M melanoma, in the experiment on SF-295 CNS and in the experiment on MDA-MB-231 breast was above 100 µM each time. The TGI in the experiment with KM12 colon, in the experiment on SK-OV-3 ovarian, in the experiment on NCI/ADR-RES ovarian, in the experiment on HL-60(TB) leukemia, in the experiment on OVCAR-4 ovarian and in the experiment on ACHN renal was above 100 µM each time. Besides, the TGI in the experiment with PC-3 prostate, with SR leukemia, in the experiment with NCI-H226 lung, in the experiment with CCRF-CEM leukemia, in the experiment on MDA-N and in the experiment with SNB-19 CNS was above 100 µM each time. The TGI in the experiment with OVCAR-5 ovarian and in the experiment with HCC-2998 colon was above 100 µM in each case.

In the case of `O=c1[nH]nc(-c2ccccc2)n1/N=C/c1ccc([N+](=O)[O-])cc1`, the TGI with NCI-H23 lung is above 100 µM; in the experiment with NCI-H522 lung it was above 100 µM; with MOLT-4 leukemia, above 100 µM; with MALME-3M melanoma it was above 100 µM; with SF-295 CNS, above 77.7 µM; with MDA-MB-231 breast, above 63.8 µM. Besides, the TGI in the experiment with KM12 colon was above 100 µM; in the experiment on SK-OV-3 ovarian, 9.34 µM; in the experiment with NCI/ADR-RES ovarian it was above 68.9 µM; in the experiment with HL-60(TB) leukemia it was above 100 µM; with OVCAR-4 ovarian, above 100 µM; in the experiment with ACHN renal it was above 100 µM. In addition, the TGI with PC-3 prostate was above 100 µM; in the experiment on SR leukemia, above 100 µM; in the experiment with NCI-H226 lung, above 75 µM; with CCRF-CEM leukemia, above 100 µM; in the experiment on MDA-N, above 100 µM; with SNB-19 CNS it was above 100 µM. Moreover, the TGI in the experiment with OVCAR-5 ovarian was above 100 µM; with HCC-2998 colon, above 83.5 µM.

These data come from PubChem BioAssay (NCI).
